One assay deals with human RAF1 (Homo sapiens (Human), UniProt P04049). The assay is described as follows: Protein kinase assay (radiometric 33P-ATP, MEK1 (K97R) substrate). The format is biochemical. The settings on record: human MEK1 (K97R) substrate 3 micromolar, ATP 10 micromolar, 10-dose IC50 mode; read-out: RAF-1 IC50. The protocol:
Protein kinase assay: Assay platform was used to measure kinase/inhibitor interactions as described previously (Anastassiadis et al., 2011). In brief, for each reaction, kinase and substrate were mixed in a buffer containing 20 mM HEPES (pH 7.5), 10 mM MgCl2, 1 mM EGTA, 0.02% Brij35, 0.02 mg/mL BSA, 0.1 mM Na3VO4, 2 mM DTT, and 1% DMSO. All compounds were solubilized in DMSO. Compounds were then added to each reaction mixture via acoustic dispense using an ECHO 550 nanoliter dispenser. For human RAF1 testing, human MEK1 (K97R) was used as a substrate at a concentration of 3 micromolar, with a final ATP concentration of 10 micromolar. For human BRAF testing, human MEK1 (K97R) was used as a substrate at 1 micromolar concentration, with a final ATP concentration of 25 micromolar. […] After a 20-min incubation, ATP (Sigma-Aldrich, St. Louis, Mo. 63178) and [g33P] ATP (specific activity 10 microCi/microliter) purchased at PerkinElmer (Boston, Mass., 02118 Cat #BLU 003H250UC) were added at a final total concentration of 10 mM. Reactions were carried out at room temperature for 2 hr and spotted onto P81 ionexchange cellulose chromatography paper (Reaction Biology). Filter paper was washed in 0.75% phosphoric acid to remove unincorporated ATP. The percent remaining kinase activity relative to a vehicle-containing (DMSO) kinase reaction was calculated for each kinase/inhibitor pair. IC50 values were calculated using Prism 5 (GraphPad).
Chain of human RAF1 (P04049 whole entry): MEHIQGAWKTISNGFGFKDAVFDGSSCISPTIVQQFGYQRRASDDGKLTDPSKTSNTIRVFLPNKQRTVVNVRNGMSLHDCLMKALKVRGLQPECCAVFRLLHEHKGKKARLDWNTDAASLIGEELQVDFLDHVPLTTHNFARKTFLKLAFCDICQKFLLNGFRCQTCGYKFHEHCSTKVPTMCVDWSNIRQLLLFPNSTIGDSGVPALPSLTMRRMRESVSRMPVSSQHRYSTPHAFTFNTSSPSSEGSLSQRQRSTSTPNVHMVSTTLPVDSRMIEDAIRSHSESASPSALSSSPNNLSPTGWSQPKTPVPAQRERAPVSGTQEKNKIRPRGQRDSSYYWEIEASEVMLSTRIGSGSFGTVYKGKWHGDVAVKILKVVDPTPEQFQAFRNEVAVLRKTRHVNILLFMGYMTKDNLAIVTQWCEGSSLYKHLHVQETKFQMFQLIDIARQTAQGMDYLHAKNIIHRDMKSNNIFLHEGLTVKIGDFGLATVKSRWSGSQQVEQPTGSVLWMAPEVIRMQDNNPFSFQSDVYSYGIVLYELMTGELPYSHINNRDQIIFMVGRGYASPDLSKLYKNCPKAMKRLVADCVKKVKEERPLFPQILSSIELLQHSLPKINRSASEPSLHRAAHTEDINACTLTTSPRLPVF
For `CNc1ncc2cc(-c3cc(NC(=O)N4CC[C@@H](CC(F)(F)F)C4)ccc3C)c(C#N)nc2n1` [Example 77, (3S)—N-[3-[7-cyano-2-(methylamino)pyrido[2,3-d]pyrimidin-6-yl]-4-methylphenyl]-3-(2,2,2-trifluoroethyl)pyrrolidine-1-carboxamide], the half-maximal inhibitory concentration (IC50) – broadly, the concentration that inhibits the measured activity by half – is not above 10 nM.

Take `CNc1ncc2cc(-c3cc(NC(=O)N4CC[C@H](OC(F)(F)F)C4)c(F)cc3C)cnc2n1` [Example 59]: the IC50 was not above 10 nM.

Turning to `Cc1ccc(NC(=O)c2ccnc(C(F)(F)F)c2)cc1-c1cc2cnc(NC(=O)C3CC3)nc2nc1C` [Example 49, N-(3-(2-(cyclopropanecarboxamido)-7-methylpyrido[2,3-d]pyrimidin-6-yl)-4-methylphenyl)-2-(trifluoromethyl)isonicotinamide], the IC50 was not above 10 nM.

Consider `CNc1ncc2cc(-c3cc(NC(=O)c4ccnc(C(F)(F)F)c4Cl)ccc3C)c(C)nc2n1` [Example 33, 3-chloro-N-(4-methyl-3-(7-methyl-2-(methylamino)pyrido[2,3-d]pyrimidin-6-yl)phenyl)-2-(trifluoromethyl)isonicotinamide], for which the IC50 was not above 10 nM.

On to `CNc1ncc2cc(-c3cc(NC(=O)c4ccnc(C(F)(F)F)c4)cnc3C)cnc2n1` [Example 46, N-(6-methyl-5-(2-(methylamino)pyrido[2,3-d]pyrimidin-6-yl)pyridin-3-yl)-2-(trifluoromethyl)isonicotinamide], for which the IC50 was not above 10 nM.

On to `CCNc1ncc2cc(-c3cc(NC(=O)c4ccnc(C(F)(F)F)c4)ccc3C)c(C)nc2n1` [Example 35, N-(3-(2-(ethylamino)-7-methylpyrido[2,3-d]pyrimidin-6-yl)-4-methylphenyl)-2-(trifluoromethyl)isonicotinamide], for which the IC50 was not above 10 nM.

Turning to `CNc1ncc2cc(-c3cc(NC(=O)c4ccnc(C(C)(F)F)c4)ccc3C)c(C)nc2n1` [Example 52, 2-(1,1-difluoroethyl)-N-[4-methyl-3-[7-methyl-2-(methylamino)pyrido[2,3-d]pyrimidin-6-yl]phenyl]pyridine-4-carboxamide], the IC50 is not above 10 nM.

In the case of `CNc1ncc2cc(-c3cc(NC(=O)N4CCC(C(F)(F)F)C4)ccc3C)cnc2n1` (stereo in doubt) [Example 54, (3R)—N-[4-methyl-3-[2-(methylamino)pyrido[2,3-d]pyrimidin-6-yl]phenyl]3(trifluoromethyl)pyrrolidine-1-carboxamide], the IC50 was not above 10 nM.

With `CNc1ncc2cc(-c3cc(NC(=O)N4CC[C@@H](OC(F)(F)F)C4)c(F)cc3C)cnc2n1` [Example 60, (3R)-N-[2-fluoro-4-methyl-5-[2-(methylamino)pyrido[2,3-d]pyrimidin-6-yl]phenyl]-3-(trifluoromethoxy)pyrrolidine-1-carboxamide], the IC50 is not above 10 nM.

Consider `CNc1ncc2cc(-c3cc(NC(=O)c4ccnc(C(F)(F)F)c4)c(F)cc3C)c(C)nc2n1` [Example 7, N-[2-fluoro-4-methyl-5-[7-methyl-2-(methylamino)pyrido[2,3-d]pyrimidin-6-yl]phenyl]-2-(trifluoromethyl) pyridine-4-carboxamide], for which the IC50 was not above 10 nM.

With `CNc1ncc2cc(-c3cc(NC(=O)c4cc(C(F)(F)F)ccn4)ccc3C)c(C)nc2n1` [Example 27], the IC50 is not above 10 nM.

`CNc1ncc2cc(-c3cc(NC(=O)N4CC=C(C(F)(F)F)C4)ccc3C)c(C)nc2n1` [Example 16, N-(4-methyl-3-(7-methyl-2-(methylamino)pyrido[2,3-d]pyrimidin-6-yl)phenyl)-3-(trifluoromethyl)-2,5-dihydro-1H-pyrrole-1-carboxamide]: the IC50 was not above 10 nM.

With `CNc1ncc2cc(-c3cc(NC(=O)c4ccnc(C(F)(F)F)c4)ccc3C)c(C(F)(F)F)nc2n1` [Example 73, N-[4-methyl-3-[2-(methylamino)-7-(trifluoromethyl)pyrido[2,3-d]pyrimidin-6-yl]phenyl]-2-(trifluoromethyl)pyridine-4-carboxamide], the half-maximal inhibitory concentration (IC50) is not above 10 nM.

With `CNc1ncc2cc(-c3cc(NC(=O)N4CC[C@@H](CC(F)(F)F)C4)ccc3C)c(C)nc2n1` [Example 20, (S)-N-(4-methyl-3-(7-methyl-2-(methylamino)pyrido[2,3-d]pyrimidin-6-yl)phenyl)-3-(2,2,2-trifluoroethyl)pyrrolidine-1-carboxamide], the IC50 is not above 10 nM.

On to `CNc1ncc2cc(-c3cc(NC(=O)N4CC[C@H](OC(F)(F)F)C4)cnc3C)cnc2n1` [Example 63, (3S)-N/-[6-methyl-5-[2-(methylamino)pyrido[2,3-d]pyrimidin-6-yl]pyridin-3-yl]-3-(trifluoromethoxy)pyrrolidine-1-carboxamide], for which the IC50 was not above 10 nM.

As for `CNc1ncc2cc(-c3cc(NC(=O)c4cccc(C(F)(F)F)c4)cnc3C)cnc2n1` [Example 45, N-(6-methyl-5-(2-(methylamino)pyrido[2,3-d]pyrimidin-6-yl)pyridin-3-yl)-3-(trifluoromethyl)benzamide], the IC50 is not above 10 nM.

Regarding `CNc1ncc2cc(-c3cc(NC(=O)c4ccnc(C(F)(F)F)c4)ccc3C)c(OCCO)nc2n1` [Example 70, N-[3-[7-(2-hydroxyethoxy)-2-(methylamino)pyrido[2,3-d]pyrimidin-6-yl]-4-methylphenyl]-2-(trifluoromethyl)pyridine-4-carboxamide], the IC50 was not above 10 nM.

`CNc1ncc2cc(-c3cc(NC(=O)N4CCC(C(F)(F)F)C4)ccc3C)c(C)nc2n1` (stereo not shown) [Example 14, N-(4-methyl-3-(7-methyl-2-(methylamino)pyrido[2,3-d]pyrimidin-6-yl)phenyl)-3-(trifluoromethyl)pyrrolidine-1-carboxamide]: the IC50 was not above 10 nM.

The assay is the same for the next values; noted with them: read-out: RAF-1 IC50.
With `CNc1ncc2cc(-c3cc(NC(=O)c4ccnc(C(F)(F)F)c4)ccc3C)c(OC)nc2n1` [Example 68, N-[3-[7-methoxy-2-(methylamino)pyrido[2,3-d]pyrimidin-6-yl]-4-methylphenyl]-2-(trifluoromethyl)pyridine-4-carboxamide], the IC50 was not above 10 nM.

For the compound `[2H]C([2H])([2H])Nc1ncc2cc(-c3cc(NC(=O)c4ccnc(C(F)(F)F)c4)ccc3C)c(C)nc2n1` [Example 43, N-(4-methyl-3-(7-methyl-2-((trideuteromethyl)amino)pyrido[2,3-d]pyrimidin-6-yl)phenyl)-2-(trifluoromethyl)isonicotinamide], the IC50 is not above 10 nM.

Turning to `CNc1ncc2cc(-c3cc(NC(=O)N4CC[C@H](SC(F)(F)F)C4)ccc3C)c(C)nc2n1` [Example 5], the concentration for half-maximal inhibition (IC50) lay within 10 to 100 nM.

As to `[2H]C([2H])([2H])Nc1ncc2cc(-c3cc(NC(=O)c4ccnc(C(F)(F)F)c4)ccc3C)c(C([2H])([2H])[2H])nc2n1` [Example 75, N-(4-methyl-3-(7-(methyl-d3)-2-((methyl-d3)amino)pyrido[2,3-d]pyrimidin-6-yl)phenyl)-2-(trifluoromethyl)isonicotinamide], the IC50 was not above 10 nM.

Source of the values: patent publication US10927111B2, “Inhibitors of RAF kinases” (Kinnate Biopharma Inc., priority 2019, dated 2021).
